Key:
Assay type in all cases: physicochemical
[1] = First order decay of chemiluminescence (base-induced decay) of hydroxyphenyl alkoxy or aryloxy dioxetanes in alkaline buffer; conditions: 37° C.; 0.2M 221 buffer, pH 9.6, 0.88 mM Mg+2, 1.0 mg/mL 1-trioctylphosphoniummethyl-4-tributylphosphoniummethylbenzene dichloride
Experimental: Comparison of Rates of Base-Induced Decay of Hydroxy-phenyl Alkoxy or Aryloxy Dioxetanes. The first order decay of chemiluminescence of dioxetanes 14-19 in 0.2M 2-methyl-2-amino-1-propanol (221) buffer, pH 9.6 containing 0.88 mM Mg^+2 and 1.0 mg/mL of 1-trioctylphosphoniummethyl-4-tributylphosphoniummethylbenzene dichloride was measured at 37° C. in a Turner Designs (Sunnyvale, Calif.) model TD-20e luminometer. The half-lives of decay of chemiluminescence (t1/2) of hydroxy-dioxetanes correlate with the times required to reach the maximum light intensity (Imax) in the alkaline phosphatase-triggered decomposition of the corresponding phosphate-dioxetanes under the same conditions. […] It is expected that, for example, the phosphate derivatives of dioxetanes 14-19 as well as others which can be produced by the process described herein will be useful in alkaline phosphatase-linkedassays known in the art.

[2] = Stability of dioxetane on silica (TLC versus NMR); conditions: TLC on silica compared with 1H NMR
Experimental: (c) Synthesis of 4-ethylthio-4-(3-pivaloyloxyphenyl)spiro[1,2-dioxetane-3,2'-tricyclo[3.3.1.1^3,7 ]decane] (2). A small photooxygenation apparatus was charged with 60 mg (0.16 mmol) of the vinyl sulfide, 180 mg of polymer-bound Rose Bengal (U.S. Pat. No. 4,315,998), and 20 mL of CH2 Cl2 dried over MgSO4. The resulting mixture was then cooled to -78° C. with oxygen bubbling through it. After several minutes, the reaction solution was irradiated with a 1000 W sodium lamp for 25 min. […] The sensitizer was filtered off, the solvent evaporated at 0° C. and the material examined by ^1 H NMR.

[3] = First order decay of chemiluminescence (base-induced decay) of hydroxyphenyl alkylthio dioxetane in alkaline buffer with surfactant enhancers; conditions: 0.2M 221 buffer pH 9.6, 0.88 mM Mg+2, ambient temperature
Experimental: Comparison of Rates of Base-Induced Decay of a Hydroxyphenyl Alkylthio Dioxetane. The first order decay of chemiluminescence of dioxetane 3 in 0.2M 221 buffer, pH 9.6 containing 0.88 mM Mg^+2 and the surfactant enhancers shown below was measured at ambient temperature. Surfactant A is CTAB, B is poly(vinylbenzyltributylphosphonium chloride), C is poly(vinylbenzyltributylphosphonium chloride)-co-poly(vinylbenzyltrioctylphosphonium chloride), D is 1-trioctylphosphoniummethyl-4-tributylphosphoniummethylbenzene dichloride.

Structure (SMILES): Oc1cccc(C2(OCC(F)(F)C(F)(F)C(F)(F)F)OOC23C2CC4CC(C2)CC3C4)c1 (stereo not shown) [Dioxetane 18, 4-(2,2,3,3,4,4,4-Heptafluorobutoxy)-4-(3-hydroxyphenyl)spiro[1,2-dioxetane-3,2'-tricyclo[3.3.1.1^3,7]decane]]
- t1/2 of decay of chemiluminescence [1]: 4.9 min

Structure (SMILES): Oc1cccc(C2(OCC(F)(F)C(F)(F)F)OOC23C2CC4CC(C2)CC3C4)c1 (stereo not shown) [Dioxetane 17, 4-(3-Hydroxyphenyl)-4-(2,2,3,3,3-pentafluoropropoxy)spiro[1,2-dioxetane-3,2'-tricyclo[3.3.1.1^3,7]decane]]
- t1/2 of decay of chemiluminescence [1]: 3.4 min

Structure (SMILES): CCSC1(c2cccc(OC(=O)C(C)(C)C)c2)OOC12C1CC3CC(C1)CC2C3 (stereo not shown) [Dioxetane 2, 4-Ethylthio-4-(3-pivaloyloxyphenyl)spiro[1,2-dioxetane-3,2'-tricyclo-[3.3.1.1^3,7]decane]]
- stability on silica [2]: less stable on silica

Structure (SMILES): Oc1cccc(C2(Sc3ccc(F)cc3)OOC23C2CC4CC(C2)CC3C4)c1 (stereo not shown) [Dioxetane 3, 4-(p-Fluorophenylthio)-4-(3-hydroxyphenyl)spiro[1,2-dioxetane-3,2'-tricyclo[3.3.1.1^3,7]decane]]
- t1/2 of decay of chemiluminescence ([3]; Surfactant A (CTAB) 0.41 g/L): 11.2 min
- t1/2 of decay of chemiluminescence ([3]; Surfactant B (poly(vinylbenzyltributylphosphonium chloride)) 0.5 g/L): 4.2 min
- t1/2 of decay of chemiluminescence ([3]; Surfactant C (poly(vinylbenzyltributylphosphonium chloride)-co-poly(vinylbenzyltrioctylphosphonium chloride)) 0.5 g/L): 2.9 min
- t1/2 of decay of chemiluminescence ([3]; Surfactant D (1-trioctylphosphoniummethyl-4-tributylphosphoniummethylbenzene dichloride) 1.0 g/L): 2.0 min

Structure (SMILES): Oc1cccc(C2(Oc3c(F)cccc3F)OOC23C2CC4CC(C2)CC3C4)c1 (stereo not shown) [Dioxetane 19, 4-(2',6'-Difluorophenoxy)-4-(3-hydroxyphenyl)spiro[1,2-dioxetane-3,2'-tricyclo[3.3.1.1^3,7]decane]]
- t1/2 of decay of chemiluminescence [1]: 1.76 min

Structure (SMILES): Oc1cccc(C2(OCC(Cl)(Cl)Cl)OOC23C2CC4CC(C2)CC3C4)c1 (stereo not shown) [Dioxetane 15, 4-(3-Hydroxyphenyl)-4-(2,2,2-trichloroethoxy)spiro[1,2-dibxetane-3,2'-tricyclo[3.3.1.1^3,7]decane]]
- t1/2 of decay of chemiluminescence [1]: 3.7 min

Structure (SMILES): Oc1cccc(C2(OCC(Cl)Cl)OOC23C2CC4CC(C2)CC3C4)c1 (stereo not shown) [Dioxetane 16, 4-(2,2-Dichloroethoxy)-4-(3-hydroxyphenyl)spiro[1,2-dioxetane-3,2'-tricyclo-[3.3.1.1^3,7]decane]]
- t1/2 of decay of chemiluminescence [1]: 4.1 min

From patent publication US5883287A, “Vinyl sulfide compounds and a process for their preparation” (Lumigen, Inc., priority 1997, dated 1999)
